Assay results: patent EP3628659A1, “SELENOESTER-CONTAINING COMPOUNDS FOR USE IN THE TREATMENT OF MICROBIAL INFECTIONS OR COLORECTAL CANCER” (Consejo Superior De Investigaciones Científicas, priority 2018, dated 2020)

What was measured:
[1] = tested on: Colo 320/MDR-LRP multidrug resistant overexpressing ABCB1 (MDR1)-LRP; experiment: cells; type: cell-based, human; settings: for IC50: Homo sapiens, 24 h, read-out: Colo 320 Cytotoxicity; for SI (MRC-5/Colo320): quotient of IC50 in MRC-5 and IC50 in Colo-320
Description: (§1) Cytotoxicity assays in human colonic adenocarcinoma cell lines Colo 205 doxorubicin-sensitive (ATCC-CCL-222) and Colo 320/MDR-LRP multidrug resistant overexpressing ABCB1 (MDR1)-LRP (ATCC-CCL-220.1) were performed following the procedure described by Gajdács et al, 2017, Bioorg Med Chem Lett. 27(4): 797-802. The effects of increasing concentrations of selenium compounds on cell growth were tested in 96-well flat-bottomed microtiter plates. The selectivity of the action towards cancer cells was assessed through the evaluation of cytotoxic activity in a non-tumoral cell line, the MRC-5 human embryonal lung fibroblast cell lines (ATCC CCL-171), as described in Gajdács et al, 2017, Bioorg Med Chem Lett. 27(4): 797-802.
(§2) All cell lines were purchased from LGC Promochem, Teddington, UK. The colonic cells were cultured in RPMI 1640 medium supplemented with 10% heat-inactivated fetal bovine serum, 2 mM L-glutamine, 1 mM Na-pyruvate and 100 mM Hepes. The cell lines were incubated at 37°C, in a 5% CO2, 95% air atmosphere. The semi-adherent human colon cancer cells were detached with Trypsin-Versene (EDTA) solution for 5 min at 37°C. Alternatively, MRC-5 cells was cultured in Eagle's Minimal Essential Medium (EMEM, containing 4.5 g/L glucose) supplemented with a non-essential amino acid mixture, a selection of vitamins and 10% heat-inactivated fetal bovine serum. The cell lines were incubated at 37°C, in a 5% CO2, 95% air atmosphere.
(§3) The compounds were diluted in a volume of 100 µL of medium. The two-fold serial dilutions of selenocompounds were prepared in 100 µL of RPMI 1640, horizontally. The semi-adherent colonic adenocarcinoma cells were treated with Trypsin-Versene (EDTA) solution. They were adjusted to a density of 2×10^4 cells in 100 µL of RPMI 1640 medium, and were added to each well, with the exception of the medium control wells. The final volume of the wells containing selenocompounds and cells was 200 µL.
(§4) The culture plates were incubated at 37°C for 24 h; at the end of the incubation period, 20 µL of MTT (thiazolyl blue tetrazolium bromide, Sigma) solution (from a stock solution of 5 mg/mL) were added to each well. After incubation at 37°C for 4 h, 100 µL of sodium dodecyl sulfate (SDS) (Sigma) solution (10% in 0.01 M HCI) were added to each well and the plates were further incubated at 37°C overnight. Cell growth was determined by measuring the optical density (OD) at 540/630 nm with Multiscan EX ELISA reader (Thermo Labsystems, Cheshire, WA, USA). Inhibition of the cell growth was determined according to the formula below: […] = 100−[(OD sample−OD medium control)/(OD cell control−OD medium control)] × 100 [formula]
(§5) Results are expressed in terms of IC50, defined as the inhibitory dose that reduces the growth of the cells exposed to the tested compounds by 50%. Regarding the selectivity, the selectivity indexes (SI) were calculate, being SI the quotient of the IC50 in non-tumoral cells (MRC-5) and the respective cancer cell (Colo-205 or Colo-320). Compound is considered moderately selective when SI < 6 and ≥ 3; and strongly selective when SI ≥ 6.

Escherichia coli AG100 = experiment: MIC determination (CLSI), E. coli AG100; type: cell-based; settings: MIC class
Description: The effects exerted by different concentrations of the compounds on bacterial growth in Staphylococcus aureus 25923 ATCC, Staphylococcus aureus multidrug resistant 272123 clinical isolate (MRSA), Escherichia coli AG100 or Escherichia coli AG100 A were tested in 96-well plates. The MIC of selenocompounds was determined according to Clinical and Laboratory Standard Institute (CLSI) guidelines. The solvent used (DMSO) had no antibacterial effect. Alternatively, the MICs of oxacillin of the compounds in MRSA HEMSA 5 were determined by a broth microdilution method in cation-adjusted Mueller-Hinton Broth (MHB II) according to the recommendations of the CLSI. Results were recorded after a 20- or 24-hour incubation at 37°C.

[2] = Cytotoxicity assay (MTT) in non-tumoral MRC-5 cells; type: cell-based; settings: human, IC50 class, non-tumoral cell line; for IC50 at 24 h: MRC-5 embryonal lung fibroblast cells (non-tumoral)
Description: as §1, §2, §3, §4, §5

ABCB1 efflux pump = target: T1, ABCB1 efflux pump (Homo sapiens, UniProt P08183); experiment: Rhodamine 123 assay of inhibition of MDR efflux pumps (flow cytometry); type: cell-based; settings: Quotient = 100 × FARcompound/FARverapamil, verapamil 20 µM, Colo 320 vs Colo 205; for Inhibition of efflux pumps At 2 µM concentration: compound 2 µM; for Inhibition of efflux pumps At 20 µM concentration: compound 20 µM
T1 construct: The colonic adenocarcinoma cells (the doxorubicin-sensitive Colo 205 and the multidrug resistant Colo 320); host or cells: Colo 320/MDR-LRP (multidrug resistant), with Colo 205 (ATCC-CCL-222) as the sensitive parental comparator
Description: This method, described in Gajdács et al, 2017, Bioorg Med Chem Lett. 27(4): 797-802, is a fluorescence-based detection system which uses verapamil as reference inhibitor of the ABCB1 efflux pump. The colonic adenocarcinoma cells (the doxorubicin-sensitive Colo 205 and the multidrug resistant Colo 320) were adjusted to a density of 2×10^6/mL, re-suspended in serum-free RPMI 1640 medium and distributed in 0.5 mL aliquots into Eppendorf centrifuge tubes. Selenocompounds (1 and 10 µL from a stock solution of 1 mM, respectively) were added at different concentrations (2 µM and 20 µM final concentrations, respectively), and the samples were incubated for 10 min at room temperature. Next, 10 µL (5.2 µM final concentration) of rhodamine 123 was added to the samples and the cells were incubated for 20 minutes at 37°C, washed twice with phosphate buffered saline (PBS) and re-suspended in 1 mL PBS for analysis. The fluorescence intensity of the cell population was measured with a Partec CyFlow flow cytometer (Partec, Munster, Germany). Verapamil was used as a positive control at 20 µM final concentration in the rhodamine 123 exclusion experiments. The mean fluorescence intensity (%) was calculated for the treated multidrug resistance (MRD) Colo 320 and sensitive Colo 205 cell lines as compared to the untreated cells. The fluorescence activity ratio (FAR) was calculated based on the following equation which relates the measured fluorescence values: FAR = (MDRtreated /MDRcontrol)/(parentaltreated /parentalcontrol); Quotient = 100 × (FARcompound/FARverapamil) [formula]

T1 sequence (P08183 whole entry): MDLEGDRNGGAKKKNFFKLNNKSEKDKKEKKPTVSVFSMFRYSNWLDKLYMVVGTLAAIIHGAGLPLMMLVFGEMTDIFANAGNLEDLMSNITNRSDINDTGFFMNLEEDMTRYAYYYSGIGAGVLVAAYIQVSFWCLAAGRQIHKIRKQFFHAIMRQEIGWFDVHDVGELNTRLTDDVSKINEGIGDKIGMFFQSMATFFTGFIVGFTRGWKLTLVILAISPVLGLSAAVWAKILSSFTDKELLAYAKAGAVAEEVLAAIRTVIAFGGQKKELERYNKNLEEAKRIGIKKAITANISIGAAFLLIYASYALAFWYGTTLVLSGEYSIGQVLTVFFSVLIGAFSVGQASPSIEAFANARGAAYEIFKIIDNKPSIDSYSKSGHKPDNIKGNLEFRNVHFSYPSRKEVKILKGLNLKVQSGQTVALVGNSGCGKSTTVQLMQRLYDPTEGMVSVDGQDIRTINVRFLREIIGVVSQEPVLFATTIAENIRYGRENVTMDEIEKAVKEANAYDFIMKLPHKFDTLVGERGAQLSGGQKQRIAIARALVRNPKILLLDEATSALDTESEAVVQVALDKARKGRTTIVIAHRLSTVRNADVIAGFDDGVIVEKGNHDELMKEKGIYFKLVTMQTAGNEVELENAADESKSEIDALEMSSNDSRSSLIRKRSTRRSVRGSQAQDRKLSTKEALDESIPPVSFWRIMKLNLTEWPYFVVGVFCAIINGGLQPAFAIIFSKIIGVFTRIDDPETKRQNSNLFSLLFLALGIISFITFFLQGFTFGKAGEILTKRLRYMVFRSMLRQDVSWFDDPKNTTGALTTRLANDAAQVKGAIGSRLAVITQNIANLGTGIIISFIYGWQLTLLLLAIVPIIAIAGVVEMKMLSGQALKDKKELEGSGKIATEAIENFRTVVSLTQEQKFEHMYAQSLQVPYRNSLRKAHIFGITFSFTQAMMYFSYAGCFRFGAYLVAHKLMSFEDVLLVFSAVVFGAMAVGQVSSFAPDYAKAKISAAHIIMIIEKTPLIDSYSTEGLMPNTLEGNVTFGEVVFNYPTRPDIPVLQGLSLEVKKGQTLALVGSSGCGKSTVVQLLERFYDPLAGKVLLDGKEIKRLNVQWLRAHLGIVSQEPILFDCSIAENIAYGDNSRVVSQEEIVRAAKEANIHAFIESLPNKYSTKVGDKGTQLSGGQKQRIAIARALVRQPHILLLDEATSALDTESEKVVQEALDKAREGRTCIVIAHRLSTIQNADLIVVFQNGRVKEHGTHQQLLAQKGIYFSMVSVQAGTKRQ

| SMILES | IC50 [1] [nM] | SI (MRC-5/Colo320) [1] | Antibacterial activity Against E. coli AG100 (Escherichia coli AG100) | IC50 at 24 h [2] [nM] | Inhibition of efflux pumps At 2 µM concentration (ABCB1 efflux pump) | Inhibition of efflux pumps At 20 µM concentration (ABCB1 efflux pump) | CC50 ([2]; mrc-5 cells) [nM] |
| --- | --- | --- | --- | --- | --- | --- | --- |
| N#CC[Se]C(=O)c1ccc(C(=O)[Se]CC#N)cc1 [Compound 18, Se,Se-bis-(cyanomethyl) benzene-1,4-bis-(carboselenoate)] | 1000 to 10000 | *** (Strongly selective compounds: SI ≥ 6) | ** (Moderate antibacterial compounds: 10 µM < MIC ≤ 50 µM) | > 50000 | ** (Potent inhibitors of MDR efflux pumps: 100% ≤ Quotient < 200% (from 1- to 2-fold more potent than reference verapamil)) | ** (Potent inhibitors of MDR efflux pumps: 100% ≤ Quotient < 200% (from 1- to 2-fold more potent than reference verapamil)) | – |
| N#CC[Se]C(=O)c1cccc(C(=O)[Se]CC#N)c1 [Compound 19, Se,Se-bis-(cyanomethyl)benzene-1,3-bis-(carboselenoate)] | 1000 to 10000 | *** (Strongly selective compounds: SI ≥ 6) | NA (Not antibacterial compounds: MIC ≥ 100 µM) | – | ** (Potent inhibitors of MDR efflux pumps: 100% ≤ Quotient < 200% (from 1- to 2-fold more potent than reference verapamil)) | ** (Potent inhibitors of MDR efflux pumps: 100% ≤ Quotient < 200% (from 1- to 2-fold more potent than reference verapamil)) | > 50000 |
| N#CC[Se]C(=O)c1cc(C(=O)[Se]CC#N)cc(C(=O)[Se]CC#N)c1 [Compound 20, Se,Se,Se-tris-(cyanomethyl) benzene-1,3,5-tris-(carboxyselenoate)] | 1000 to 10000 | *** (Strongly selective compounds: SI ≥ 6) | NA (Not antibacterial compounds: MIC ≥ 100 µM) | > 50000 | ** (Potent inhibitors of MDR efflux pumps: 100% ≤ Quotient < 200% (from 1- to 2-fold more potent than reference verapamil)) | ** (Potent inhibitors of MDR efflux pumps: 100% ≤ Quotient < 200% (from 1- to 2-fold more potent than reference verapamil)) | – |
| CC(=O)C[Se]C(=O)c1ccc(C(=O)[Se]CC(C)=O)cc1 [Compound 22, Se,Se-bis-(2-oxopropyl) benzene-1,4-bis-(carboselenoate)] | < 1000 | * (Slightly selective compounds: 1 ≤ SI < 3) | ** (Moderate antibacterial compounds: 10 µM < MIC ≤ 50 µM) | < 1000 | *** (Very potent inhibitors of MDR efflux pumps: Quotient ≥ 200% (≥ 2-fold more potent than reference verapamil)) | *** (Very potent inhibitors of MDR efflux pumps: Quotient ≥ 200% (≥ 2-fold more potent than reference verapamil)) | – |
| CC(=O)C[Se]C(=O)c1cccc(C(=O)[Se]CC(C)=O)c1 [Compound 23, Se,Se-bis-(2-oxopropyl) benzene-1,3-bis-(carboselenoate)] | < 1000 | * (Slightly selective compounds: 1 ≤ SI < 3) | ** (Moderate antibacterial compounds: 10 µM < MIC ≤ 50 µM) | 1000 to 10000 | *** (Very potent inhibitors of MDR efflux pumps: Quotient ≥ 200% (≥ 2-fold more potent than reference verapamil)) | *** (Very potent inhibitors of MDR efflux pumps: Quotient ≥ 200% (≥ 2-fold more potent than reference verapamil)) | – |
| CC(=O)C[Se]C(=O)c1cc(C(=O)[Se]CC(C)=O)cc(C(=O)[Se]CC(C)=O)c1 [Compound 24, Se,Se,Se-tris-(2-oxopropyl) benzene-1,3,5-tris-(carboxyselenoate)] | < 1000 | * (Slightly selective compounds: 1 ≤ SI < 3) | ** (Moderate antibacterial compounds: 10 µM < MIC ≤ 50 µM) | < 1000 | *** (Very potent inhibitors of MDR efflux pumps: Quotient ≥ 200% (≥ 2-fold more potent than reference verapamil)) | *** (Very potent inhibitors of MDR efflux pumps: Quotient ≥ 200% (≥ 2-fold more potent than reference verapamil)) | – |
